# Source: patent publication US20140357688A1, “METHOD FOR INHIBITING EZH2 EXPRESSION IN BREAST CANCER CELLS” (Yung Shin Pharm. Ind. Co., Ltd., priority 2013, published 2014)
# Peptide text beside a SMILES is read from it. * marks the point of attachment. Cbz = O=C(OCc1ccccc1)*
# Key:
# Type in all cases: cell-based, human
# [1] = test system: EZH2; test: Western blot of EZH2 protein expression in MDA-MB-468 cells; details: for effect of inhibitor on YC-1-induced EZH2 inhibition: inhibitor pretreatment, then 3 μM YC-1 for 6 h
# Protocol: Cells were harvested and performed with western blotting analysis. […] The levels of protein expression were quantitated and shown under blots. (C) Cells were transfected with EZH2 shRNA for 0, 1, 2, 3, and 4 days and collected for determination of cell viability (left) and protein expression (right). (D)(E) After 4 days of EZH2 knockdown, cells were incubated with 3 μM YC-1 for 4 h and detected cell viability (D) and protein contents (E). (F) Tumor specimens were isolated and protein was extracted for western blot analysis.
# Cells were lysed in PBS containing proteinase inhibitor and phosphatase inhibitors and sonication. Protein concentration was measured using the Bio-Rad protein assay kit (Bio-Rad Laboratories, Hercules, Calif., USA). Lysate protein was separated by electrophoresis of SDS-PAGE and transferred to Immobilon P membrane (EMD Millipore). The membranes were incubated with appropriate primary antibodies and horseradish peroxidase-conjugated secondary antibodies (EMD Millipore). The signaling was visualized using Chemiluminescence substrate kit (EMD Millipore) and collected by the Luminesence image analyzer, LAS4000 (Fuji Photo Film Co., Tokyo, Japan). The band intensities were analyzed and quantified by the Multi Gauge software (Fuji Photo Film).
# [2] = test system: EZH2; test: EZH2 ubiquitination assay; details: inhibitor pretreatment, then 3 μM YC-1
# Protocol: (A) Cells were pretreated with cyclohexamide (30 μM) for 1 h and followed by induction with vehicle (DMSO) or YC-1 (3 μM) for indicated time. Cells were harvested for detection of protein expression. (B)(C) Cells were incubated with 3 μM YC-1 for 6 h in the presence of vehicle, 3 μM MG-132 or 30 μM NH4Cl. Cells were harvested for detection of protein expression (B) or cell viability assay (C). The levels of protein expression were quantitated and shown under blots. (D) After treatment of 3 μM YC-1 for indicated time, cells were harvested and lysed for immunoprecipitation and western blot analysis described in Materials and Methods.
# Cells were lysed with MLB buffer (25 mM HEPES, pH 7.5, 150 mM NaCl, 1% Igepal CA-630, 10 mM MgCl2, 1 mM EDTA, 2% glycerol, 1 mM Na3VO4, 1 mM NaF, 1 mM PMSF, 10 μg/ml of leupeptin, aprotinin, and pepstatin A). After sonication, cell lysates were centrifugated at 12,000×g for 10 min at 4° C. Supernatants were incubated with anti-EZH2 antibody (BD Biosciences) and protein A Sepharose beads (GE Health Care) overnight at 4° C. After washing with MLB buffer, precipitated proteins were boiled in 1× Laemmli sample buffer and then separated with SDS-PAGE. The ubiquitination levels of EZH2 were recognized by using anti-Ubiquitn monoclonal antibody.
# [3] = test system: MDA-MB-468; test: MTT cell viability assay; details: for effect of inhibitor on YC-1-induced inhibition of cell viability: inhibitor pretreatment, then 3 μM YC-1 for 6 h
# Protocol: (A) Cells were treated with indicated concentration of YC-1 for 6, 24, and 48 h. Cell viability was determined by MTT method. (B) MDA-MB-468 cells were treated with 3 μM YC-1 for 0, 6, and 12 h, and then stained with fluorescence diacetate (FDA) and propidium iodide (PI). Cell morphology was assessed by fluorescence microscopy with magnification ×20 (upper 3 rows) or ×40 (lowest row). (C) MDA-MB-468 cells were treated with 3 μM YC-1 for 24 h, cells were lysed and subjected to western blot analysis described in Materials and Methods. β-actin is a loading control. Blots were representative of results from three independent experiments. (D) Cells were treated with vehicle (DMSO, as control) or 3 μM YC-1 for 6 h. The cell cycles were analyzed by flow cytometry. (E) Cells were treated with indicated concentration of YC-1 and then performed with clonogenic assay.
# Human breast cancer cells, MDA-MB-468, MDA-MB-157, MDA-MB-231, MDA-MB-453, and Hs578T, and immortalized mammary epithelial cell lines, 184A1 and MCF-10A, were obtained from American Type Culture Collection (Manassas, Va., USA). MDA-MB-468, MDA-MB-157, MDA-MB-231, and MDA-MB-453 were cultured in DMEM/F12 medium supplemented with 10% FBS, 100 U/ml penicillin, and 100 μg/ml streptomycin. Hs578T was cultured in RPMI 1640 medium containing 10% FBS, 2 mM L-glutamine, 100 U/ml penicillin, and 100 μg/ml streptomycin. 184A1 and MCF-10A were cultured in DMEM/F12 medium supplemented with 5% horse serum, 0.5 μg/ml hydrocortisone, 10 μg/ml insulin, 20 ng/ml epidermal growth factor, 0.1 μg/ml cholera enterotoxin, 2 mM L-glutamine, 100 U/ml penicillin, and 100 μg/ml streptomycin. All cells were maintained in a humidified incubator containing 5% CO2. For hypoxia treatment, cells were incubated in a chamber flushed with 1% 02, 5% CO2, and 94% N2 at 37° C.
# Cell viability was measured by 3-(4,5-Dimethyl-2-thiazolyl)2,5-diphenyl-2H-tetrazolium bromide (MTT) assay.
# [4] = test system: c-Cbl; test: Western blot of c-Cbl phosphorylation and expression; details: pretreatment 1 h, then 3 μM YC-1 for 6 h
# Protocol: (A) c-Cbl knockdown MDA-MB-468 cells were treated with 3 μM YC-1 for 4 h. Cell were harvested for detection of protein expression. (B) Cells were treated with 3 μM YC-1 for indicated time. Cells were collected and c-Cbl phosphorylation was detected. […] (D) Cells were pretreated with MG-132 and followed by 3 μM YC-1 induction for indicated time. Cells were harvested and lysed for immunoprecipitation assay. The association between c-Cbl and EZH2 were determined by western blotting analysis and probed with anti-EZH2 or anti-c-Cbl antibody. Membranes were stripped and reprobed with anti-c-Cbl or anti-EZH2 antibody to check the input. […] Then cells were collected and lysate protein was subjected for the detection of the c-Cbl-EZH2 complexes. Cells were lysed in PBS containing proteinase inhibitor and phosphatase inhibitors and sonication. Protein concentration was measured using the Bio-Rad protein assay kit (Bio-Rad Laboratories, Hercules, Calif., USA). Lysate protein was separated by electrophoresis of SDS-PAGE and transferred to Immobilon P membrane (EMD Millipore). The membranes were incubated with appropriate primary antibodies and horseradish peroxidase-conjugated secondary antibodies (EMD Millipore). The signaling was visualized using Chemiluminescence substrate kit (EMD Millipore) and collected by the Luminesence image analyzer, LAS4000 (Fuji Photo Film Co., Tokyo, Japan). The band intensities were analyzed and quantified by the Multi Gauge software (Fuji Photo Film).
# [5] = test system: EZH2-c-Cbl-ERK; test: Co-immunoprecipitation of c-Cbl and EZH2; details: PD98059 10 μM with MG-132, then 2 h 3 μM YC-1
# Protocol: (A) c-Cbl knockdown MDA-MB-468 cells were treated with 3 μM YC-1 for 4 h. Cell were harvested for detection of protein expression. (B) Cells were treated with 3 μM YC-1 for indicated time. Cells were collected and c-Cbl phosphorylation was detected. (C) Cells were pretreated with MG-132 (3 μM) or NH4Cl (30 μM) for 1 h followed by 3 μM YC-1 induction for 6 h. (D) Cells were pretreated with MG-132 and followed by 3 μM YC-1 induction for indicated time. Cells were harvested and lysed for immunoprecipitation assay. The association between c-Cbl and EZH2 were determined by western blotting analysis and probed with anti-EZH2 or anti-c-Cbl antibody. Membranes were stripped and reprobed with anti-c-Cbl or anti-EZH2 antibody to check the input. (E) Cells were preincubated with or without PD98059 (10 μM) in the presence of MG-132 for 1 h prior to 2 h-treatment of 3 μM YC-1. Then cells were collected and lysate protein was subjected for the detection of the c-Cbl-EZH2 complexes.
# Cells were lysed with RIPA buffer (50 mM Tris-C1, pH 7.5, 1% Igepal CA-630, 150 mM NaCl, 1 mM EDTA, 1 mM Na3VO4, 1 mM NaF, 1 mM PMSF, 10 μg/ml of leupeptin, aprotinin, and pepstatin A) for 30 min at 4° C. One milligram of cell lysate was incubated with anti-EZH2 or anti-c-Cbl antibody and protein A-Sepharose beads, then gently rotated at 4° C. overnight. […]
SMILES,effect of inhibitor on YC-1-induced EZH2 inhibition [1],effect of inhibitor on YC-1-induced EZH2 ubiquitination [2],effect of inhibitor on YC-1-induced inhibition of cell viability [3],also measured
COc1cc2ncnc(Nc3cccc(Cl)c3)c2cc1OC [AG1478],not affected,not,–,–
CNC(=O)c1cc(Oc2ccc(NC(=O)Nc3ccc(Cl)c(C(F)(F)F)c3)cc2)ccn1 [Bay-43-9006],attenuated,significantly suppressed,attenuated,–
"Nc1nccc2c1ncn2[C@@H]1C=C(CO)[C@@H](O)[C@H]1O [DZNep, 3-deazaneplanocin A]",–,–,–,"activation of apoptosis / cell viability ([3]; DZNep, 24 h, ten folds of concentration higher than YC-1): failed to inhibit EZH2 and activate apoptosis; EZH2 inhibition ([1]; DZNep 3, 10, 30 μM, 24 h, ten folds of concentration higher than YC-1): failed to inhibit EZH2"
COC(=O)[C@@]1(OC)C[C@H]2O[C@]1(C)n1c3ccccc3c3c4c(c5c6ccccc6n2c5c31)C(=O)N(C)C4 [KT5823],failed to have effects,–,failed to have effects,–
CC(C)C[C@@H](C=O)NC(=O)[C@H](CC(C)C)NC(=O)[C@H](CC(C)C)NC(=O)OCc1ccccc1 [MG-132] (Cbz-Leu-Leu-Leu-aldehyde),significantly prevented EZH2 degradation,–,reversed the YC-1-induced inhibition of cell viability,effect of inhibitor on YC-1-induced inhibition of c-Cbl [4]: could be reversed
"Cl.N [NH4Cl, reference compound]",not,–,–,effect of inhibitor on YC-1-induced inhibition of c-Cbl [4]: not
O=c1onc2n1-c1cc(Br)ccc1OC2 [NS2028],failed to have effects,–,failed to have effects,–
O=c1onc2cnc3ccccc3n12 [ODQ],failed to have effects,–,failed to have effects,–
COc1cccc(-c2cc(=O)c3ccccc3o2)c1N [PD98059],almost completely abolished,could be blocked,almost completely abolished,effect of inhibitor on EZH2-c-Cbl-ERK complex [5]: could be disrupted
COc1cc2ncnc(Nc3ccc(Oc4ccccc4)cc3)c2cc1OC [SrcI],attenuated,significantly suppressed,attenuated,–
CC(C)=CCC/C(C)=C/CC/C(C)=C/CSc1ccccc1C(=O)O [farnyesyl thiosalicylic acid],had no effect,–,–,–
O=c1c(-c2ccc(O)cc2)coc2cc(O)cc(O)c12 [genistein],attenuated,significantly suppressed,attenuated,–
CCCC[C@@H](C)/C=C(C)/C=C(\C)C(=O)NC1=C[C@@](O)(/C=C/C=C/C=C/C(=O)NC2=C(O)CCC2=O)[C@@H]2O[C@@H]2C1=O [manumycin A],failed to influent,–,–,–
CC[C@H](CO)Nc1nc(NCc2ccccc2)c2ncn(C(C)C)c2n1 [roscovitine],failed to modulate,–,failed to modulate,–
